Article PMC5896373 (Molecular Pharmacology, 2018)
Residue numbers refer to the chain shown, from its start. Values joined by “and” are separate entries in the source; they are usually repeats but may differ in a detail not shown here. Equal values may be shown once.

Legend:
P2X7R point mutant S86A = molecular target: T1, P2X7R point mutant S86A (Homo sapiens, UniProt Q99572, I21V/M24R/N16P/N25R/Q22R/R20V/S23N/S86A/T19I/Y26L); experiment: Two-electrode voltage clamp of ATP-evoked currents in Xenopus oocytes; format: cell-based; settings: EC90 ATP, mean ± S.E.M.
T1 construct: expressed in transfected cells; host or cells: Xenopus laevis oocytes (cRNA injection)
Method: (§1) Additional point mutants were made using the QuikChange mutagenesis kit (Stratagene California, La Jolla, CA). The production of the correct mutations and absence of coding errors was determined by DNA sequencing (Automated ABI Sequencing Service, University of Leicester, UK). cRNA was generated for the mutants and 50 nl (50 ng) was injected into manually defoliculated stage V Xenopus laevis oocytes using an Inject+Matic microinjector (J.A. Gabay, Inject+Matic, Geneva, Switzerland). Injected oocytes were stored at 16°C in ND96 buffer [in millimolar concentrations, NaCl 96, KCl 2, CaCl2 1.8, MgCl2 1, sodium pyruvate 5, and HEPES 5 (pH 7.6) supplemented with 50 μg/ml gentamycin and 50 μg/ml tetracycline]. Three to seven days postinjection two-electrode voltage clamp recordings were made from oocytes bathed in divalent-free ND96 buffer (in millimolar concentrations, NaCl 96, KCl 2, sodium pyruvate 5, HEPES 5, and 0.1 flufenamic acid, pH 7.6). Oocytes were voltage clamped at a holding potential of −60 mV with a GeneClamp500B amplifier (Molecular Devices).
Inhibition by the antagonists was expressed as the percentage of the peak current amplitude of an EC90 concentration of ATP recorded before the application of antagonist (ATP gave reproducible responses to ATP in the absence of antagonist). […]

[1] = molecular target: T2, chimeric P2X7/1 receptor 89–94 (Homo sapiens, UniProt Q99572, I21V/M24R/N16P/N25R/Q22R/R20V/S23N/T19I/T90V/T94V/Y26L); experiment: as above; format: cell-based; settings: for IC50: inhibition of EC90 ATP response
T2 construct: expressed in transfected cells; host or cells: Xenopus laevis oocytes (cRNA injection)
T2 sequence (Q99572 1-595 N16P/T19I/R20V/I21V/Q22R/S23N/M24R/N25R/Y26L/T90V/T94V): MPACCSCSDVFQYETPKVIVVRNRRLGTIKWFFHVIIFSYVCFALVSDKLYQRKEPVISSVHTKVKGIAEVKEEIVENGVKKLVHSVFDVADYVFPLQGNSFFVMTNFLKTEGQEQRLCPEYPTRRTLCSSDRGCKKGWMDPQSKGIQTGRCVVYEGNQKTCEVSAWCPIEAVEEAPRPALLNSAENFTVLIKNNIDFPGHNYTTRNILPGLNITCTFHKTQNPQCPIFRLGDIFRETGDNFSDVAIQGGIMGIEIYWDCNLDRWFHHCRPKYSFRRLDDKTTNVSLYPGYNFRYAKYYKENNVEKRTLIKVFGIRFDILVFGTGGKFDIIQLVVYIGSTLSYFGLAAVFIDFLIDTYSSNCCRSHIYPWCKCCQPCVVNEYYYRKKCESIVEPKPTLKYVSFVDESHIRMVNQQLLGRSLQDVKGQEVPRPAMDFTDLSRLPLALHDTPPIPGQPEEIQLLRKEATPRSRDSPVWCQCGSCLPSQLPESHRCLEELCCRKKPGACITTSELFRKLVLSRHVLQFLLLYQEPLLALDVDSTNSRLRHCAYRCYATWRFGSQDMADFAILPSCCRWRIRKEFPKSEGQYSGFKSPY
Method: (§2) The production of the correct mutations and absence of coding errors was determined by DNA sequencing (Automated ABI Sequencing Service, University of Leicester, UK). cRNA was generated for the mutants and 50 nl (50 ng) was injected into manually defoliculated stage V Xenopus laevis oocytes using an Inject+Matic microinjector (J.A. Gabay, Inject+Matic, Geneva, Switzerland). Injected oocytes were stored at 16°C in ND96 buffer [in millimolar concentrations, NaCl 96, KCl 2, CaCl2 1.8, MgCl2 1, sodium pyruvate 5, and HEPES 5 (pH 7.6) supplemented with 50 μg/ml gentamycin and 50 μg/ml tetracycline]. Three to seven days postinjection two-electrode voltage clamp recordings were made from oocytes bathed in divalent-free ND96 buffer (in millimolar concentrations, NaCl 96, KCl 2, sodium pyruvate 5, HEPES 5, and 0.1 flufenamic acid, pH 7.6). Oocytes were voltage clamped at a holding potential of −60 mV with a GeneClamp500B amplifier (Molecular Devices).
(§3) Inhibition by the antagonists was expressed as the percentage of the peak current amplitude of an EC90 concentration of ATP recorded before the application of antagonist (ATP gave reproducible responses to ATP in the absence of antagonist). Inhibition curves were fitted with the Hill equation (variable slope) using GraphPad Prism 6 (GraphPad Software, San Diego, CA). […] Individual concentration-response curves were generated for individual experiments, and statistical analysis was carried out on the data generated. […] Data are shown as mean ± S.E.M. In all cases n ≥ 3 for all data points.

P2X7-2Nβ receptor = molecular target: T3, P2X7-2Nβ receptor (Homo sapiens, UniProt Q99572, I21V/M24R/N16P/N25R/Q22R/R20V/S23N/T19I/Y26L); experiment: as above; format: cell-based; settings: inhibition of EC90 ATP response
T3 construct: expressed in transfected cells; host or cells: Xenopus laevis oocytes (cRNA injection)
Method: as §2, §3

P2X7R point mutant M105A = molecular target: T4, P2X7R point mutant M105A (Homo sapiens, UniProt Q99572, I21V/M105A/M24R/N16P/N25R/Q22R/R20V/S23N/T19I/Y26L); experiment: as above; format: cell-based; settings: EC90 ATP, mean ± S.E.M.
T4 construct: expressed in transfected cells; host or cells: Xenopus laevis oocytes (cRNA injection)
Method: (§4) Injected oocytes were stored at 16°C in ND96 buffer [in millimolar concentrations, NaCl 96, KCl 2, CaCl2 1.8, MgCl2 1, sodium pyruvate 5, and HEPES 5 (pH 7.6) supplemented with 50 μg/ml gentamycin and 50 μg/ml tetracycline]. Three to seven days postinjection two-electrode voltage clamp recordings were made from oocytes bathed in divalent-free ND96 buffer (in millimolar concentrations, NaCl 96, KCl 2, sodium pyruvate 5, HEPES 5, and 0.1 flufenamic acid, pH 7.6). Oocytes were voltage clamped at a holding potential of −60 mV with a GeneClamp500B amplifier (Molecular Devices).
as §3

P2X7R point mutant L83A = molecular target: T5, P2X7R point mutant L83A (Homo sapiens, UniProt Q99572, I21V/L83A/M24R/N16P/N25R/Q22R/R20V/S23N/T19I/Y26L); experiment: as above; format: cell-based; settings: EC90 ATP, mean ± S.E.M.
T5 construct: expressed in transfected cells; host or cells: Xenopus laevis oocytes (cRNA injection)
Method: as §4, §3

P2X7R point mutant F108C = molecular target: T6, P2X7R point mutant F108C (Homo sapiens, UniProt Q99572, F108C/I21V/M24R/N16P/N25R/Q22R/R20V/S23N/T19I/Y26L); experiment: cell-based
T6 construct: expressed in transfected cells; host or cells: Xenopus laevis oocytes (cRNA injection)
Method: as §4, §3

P2X7R point mutant Y298A = molecular target: T7, P2X7R point mutant Y298A (Homo sapiens, UniProt Q99572, I21V/M24R/N16P/N25R/Q22R/R20V/S23N/T19I/Y26L/Y298A); experiment: cell-based
T7 construct: expressed in transfected cells; host or cells: Xenopus laevis oocytes (cRNA injection)
Method: as §4
(§5) Inhibition by the antagonists was expressed as the percentage of the peak current amplitude of an EC90 concentration of ATP recorded before the application of antagonist (ATP gave reproducible responses to ATP in the absence of antagonist). Inhibition curves were fitted with the Hill equation (variable slope) using GraphPad Prism 6 (GraphPad Software, San Diego, CA). […] Individual concentration-response curves were generated for individual experiments, and statistical analysis was carried out on the data generated. When shown in figures, the inhibition curves are fitted to the mean normalized data. […] Data are shown as mean ± S.E.M. In all cases n ≥ 3 for all data points.

[2] = molecular target: T8, chimeric P2X7/1 receptor 105–114 (Homo sapiens, UniProt Q99572, E112P/G113K/I21V/K110V/L109I/M24R/N16P/N25R/Q22R/R20V/S23N/T19I/Y26L); experiment: Two-electrode voltage clamp of ATP-evoked currents in Xenopus oocytes; format: cell-based
T8 construct: expressed in transfected cells; host or cells: Xenopus laevis oocytes (cRNA injection)
T8 sequence (Q99572 1-595 N16P/T19I/R20V/I21V/Q22R/S23N/M24R/N25R/Y26L/L109I/K110V/E112P/G113K): T2 sequence (Q99572 1-595 N16P/T19I/R20V/I21V/Q22R/S23N/M24R/N25R/Y26L/T90V/T94V) with V90T, V94T, L109I, K110V, E112P, G113K
Method: as §1, §3

[3] = molecular target: T9, chimeric P2X7/1 receptor 164–168 (Homo sapiens, UniProt Q99572, A166G/I21V/M24R/N16P/N25R/Q22R/R20V/S165F/S23N/T19I/V164I/Y26L); experiment: as above; format: cell-based; settings: chimera 164–168; for IC50: inhibition of EC90 ATP response
T9 construct: expressed in transfected cells; host or cells: Xenopus laevis oocytes (cRNA injection)
T9 sequence (Q99572 1-595 N16P/T19I/R20V/I21V/Q22R/S23N/M24R/N25R/Y26L/V164I/S165F/A166G): T2 sequence (Q99572 1-595 N16P/T19I/R20V/I21V/Q22R/S23N/M24R/N25R/Y26L/T90V/T94V) with V90T, V94T, V164I, S165F, A166G
Method: as §1, §5

P2X7R point mutant I310A = molecular target: T10, P2X7R point mutant I310A (Homo sapiens, UniProt Q99572, I21V/I310A/M24R/N16P/N25R/Q22R/R20V/S23N/T19I/Y26L); experiment: as above; format: cell-based; settings: EC90 ATP, mean ± S.E.M.
T10 construct: expressed in transfected cells; host or cells: Xenopus laevis oocytes (cRNA injection)
T10 sequence (Q99572 whole entry N16P/T19I/R20V/I21V/Q22R/S23N/M24R/N25R/Y26L/I310A): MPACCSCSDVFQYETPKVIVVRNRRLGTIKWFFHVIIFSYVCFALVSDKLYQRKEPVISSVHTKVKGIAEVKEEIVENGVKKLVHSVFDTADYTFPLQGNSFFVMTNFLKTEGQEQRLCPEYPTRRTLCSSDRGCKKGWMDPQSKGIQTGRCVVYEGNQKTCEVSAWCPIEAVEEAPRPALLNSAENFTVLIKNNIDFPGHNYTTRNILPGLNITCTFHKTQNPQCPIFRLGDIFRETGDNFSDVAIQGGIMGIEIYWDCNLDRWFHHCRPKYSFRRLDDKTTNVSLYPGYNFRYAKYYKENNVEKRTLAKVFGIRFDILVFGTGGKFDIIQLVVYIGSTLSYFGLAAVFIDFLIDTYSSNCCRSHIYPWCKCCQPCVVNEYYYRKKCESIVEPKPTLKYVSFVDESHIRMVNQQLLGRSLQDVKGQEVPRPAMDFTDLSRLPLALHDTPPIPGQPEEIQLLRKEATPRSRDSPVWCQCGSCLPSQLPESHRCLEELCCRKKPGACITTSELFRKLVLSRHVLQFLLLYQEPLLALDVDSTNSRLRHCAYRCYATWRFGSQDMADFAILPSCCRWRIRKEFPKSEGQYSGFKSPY
Method: as §4, §3

T3 sequence (Q99572 whole entry N16P/T19I/R20V/I21V/Q22R/S23N/M24R/N25R/Y26L): as the sequence (Q99572 whole entry N16P/T19I/R20V/I21V/Q22R/S23N/M24R/N25R/Y26L/I310A) above, with A310I counted along it
T1 sequence (Q99572 whole entry N16P/T19I/R20V/I21V/Q22R/S23N/M24R/N25R/Y26L/S86A): as the sequence (Q99572 whole entry N16P/T19I/R20V/I21V/Q22R/S23N/M24R/N25R/Y26L/I310A) above, with S86A, A310I counted along it
T5 sequence (Q99572 whole entry N16P/T19I/R20V/I21V/Q22R/S23N/M24R/N25R/Y26L/L83A): as the sequence (Q99572 whole entry N16P/T19I/R20V/I21V/Q22R/S23N/M24R/N25R/Y26L/I310A) above, with L83A, A310I counted along it
T7 sequence (Q99572 whole entry N16P/T19I/R20V/I21V/Q22R/S23N/M24R/N25R/Y26L/Y298A): as the sequence (Q99572 whole entry N16P/T19I/R20V/I21V/Q22R/S23N/M24R/N25R/Y26L/I310A) above, with Y298A, A310I counted along it
T4 sequence (Q99572 whole entry N16P/T19I/R20V/I21V/Q22R/S23N/M24R/N25R/Y26L/M105A): as the sequence (Q99572 whole entry N16P/T19I/R20V/I21V/Q22R/S23N/M24R/N25R/Y26L/I310A) above, with M105A, A310I counted along it
T6 sequence (Q99572 whole entry N16P/T19I/R20V/I21V/Q22R/S23N/M24R/N25R/Y26L/F108C): as the sequence (Q99572 whole entry N16P/T19I/R20V/I21V/Q22R/S23N/M24R/N25R/Y26L/I310A) above, with F108C, A310I counted along it

SMILES	IC50 (P2X7R point mutant S86A)	inhibition at 10 µM ([1]; P2X7, read-out: inhibition of ATP responses)	IC50 ([1]; chimera 89–94)	IC50 (P2X7-2Nβ receptor)	IC50 (P2X7R point mutant M105A)	IC50 (P2X7R point mutant L83A)	IC50 (P2X7R point mutant F108C)	IC50 (P2X7R point mutant Y298A)	IC50 [2]	IC50 [3]	IC50 (P2X7R point mutant I310A)	fold decrease in antagonist sensitivity/affinity relative to P2X7-2Nβ ([1]; chimera 89–94)	effect on antagonist potency relative to P2X7-2Nβ ([2]; chimera 105–114)	fold decrease in antagonist sensitivity relative to P2X7-2Nβ [3]
Cl.Clc1cccc(-c2nnnn2Cc2cccnc2)c1Cl.O [A438079, 3-(5-(2,3-dichlorophenyl)-1H-tetrazol-1-yl)methyl pyridine hydrochloride hydrate]	1000 nM	15.7%	> 100000 nM	933 nM and 1000 nM	1580 nM	794 nM	10000 nM	6310 nM	501 nM	10000 nM	6310 nM	–	–	–
COc1ccc(CC(=O)NC(N=C(NC#N)Nc2cccc3ncccc23)C(C)(C)C)cc1OC (stereo not drawn) [A740003, N-[1-[[(cyanoamino)(5-quinolinylamino)methylene]amino]-2,2-dimethylpropyl]-3,4-dimethoxybenzeneacetamide]	79.4 nM	–	251 nM	79.4 nM	12600 nM	316 nM	1000 nM	2000 nM	100 nM	398 nM	126 nM	~3 fold	no effect	~5 fold
